This is an account of results in patent publication US20090275648A1, “MACROCYCLIC GHRELIN RECEPTOR ANTAGONISTS AND INVERSE AGONISTS AND METHODS OF USING THE SAME” (priority 2005, published 2009).

By Ki is commonly meant a measure of affinity in units of concentration, obtained from inhibition or displacement. High values mean a looser hold on the target, low ones a stronger hold on the target. What is called IC50 is the concentration at which inhibition is half-maximal.

Test [1] has as its target T1, human ghrelin receptor (hGHS-R1a) (Homo sapiens, UniProt Q92847).
T1 construct: purchased PerkinElmer BioSignal #RBHGHSM, lot#1887; host or cells: HEK-293 cells, stably transfected; membranes
Briefly: Competitive radioligand binding assay (ghrelin receptor), [125I]-ghrelin, GHS-R/HEK 293 membranes. The following applies: competition with [125I]-ghrelin. The procedure: The competitive binding assay at the human growth hormone secretagogue receptor (HGHS-R1a) was carried out analogously to assays described in the literature. (Bednarek M A et al. Structure-function studies on the new growth hormone-releasing peptide ghrelin: minimal sequence of ghrelin necessary for activation of growth hormone secretagogue receptor 1a; J. Med. Chem. 2000, 43, 4370-4376; Palucki, B. L. et al. Spiro(indoline-3,4′-piperidine) growth hormone secretagogues as ghrelin mimetics; Bioorg. Med. Chem. Lett. […], 11, 1955-1957).
Membranes (GHS-R/HEK 293) were prepared from HEK-293 cells stably transfected with the human ghrelin receptor (hGHS-R1a). These membranes were provided by PerkinElmer BioSignal (#RBHGHSM, lot#1887) and utilized at a quantity of 0.71 μg/assay point. • 1. [^125]-Ghrelin (PerkinElmer, #NEX-388); final concentration: 0.0070-0.0085 nM • 2. […] Multiscreen Harvest plates-GF/C (Millipore, #MAHFC1H60) • 4. Deep-well polypropylene titer plate (Beckman Coulter, #267006) • 5. TopSeal-A (PerkinElmer, #6005185) • 6. Bottom seal (Millipore, #MATAH0P00) • 7. MicroScint-0 (PerkinElmer, #6013611) • 8. Binding Buffer: 25 mM Hepes (pH 7.4), 1 mM CaCl2, 5 mM MgCl2, 2.5 mM EDTA, 0.4% BSA
Competition experiments were performed in a 300 μl filtration assay format. • 1. 220 μL of membranes diluted in binding buffer • 2. 40 μL of compound diluted in binding buffer • 3.
Compounds were provided frozen on dry ice at a stock concentration of 10 mM diluted in 100% DMSO and stored at −80° C. until the day of testing. On the test day, compounds were allowed to thaw at rt overnight and then diluted in assay buffer according to the desired test concentrations. Under these conditions, the maximal final DMSO concentration in the assay was 0.1%.
In deep-well plates, 220 μL of diluted cell membranes (final concentration: 0.71 μg/well) were combined with 40 μL of either binding buffer (total binding, N=5), 1 μM ghrelin (non-specific binding, N=3) or the appropriate concentration of test compound N=2 for each test concentration). […] Plates were sealed with TopSeal-A, vortexed gently and incubated at rt for 30 min. The reaction was arrested by filtering samples through Multiscreen Harvest plates (pre-soaked in 0.5% polyethyleneimine) using a Tomtec Harvester, washed 9 times with 500 μL of cold 50 mM Tris-HCl (pH 7.4, 4° C.), and then plates were air-dried in a fumehood for 30 min. A bottom seal was applied to the plates prior to the addition of 25 μL of MicroScint-0 to each well. Plates were than sealed with TopSeal-A and counted for 30 sec per well on a TopCount Microplate Scintillation and Luminescence Counter (PerkinElmer) using a count delay of 60 sec. Results were expressed as counts per minute (cpm).
Data were analyzed by GraphPad Prism (GraphPad Software, San Diego, Calif.) using a variable slope non-linear regression analysis.
Dmax values were calculated using the following formula: […]
where total and non-specific binding represent the cpm obtained in the absence or presence of 1 μM ghrelin, respectively.

The target in test [2] is T2, ghrelin receptor (Homo sapiens, UniProt Q92847). Briefly: Inverse agonist assay, Example 4. It is filed as cell-based. The following applies: inverse agonist activity. An excerpt:
The inverse agonist activity at the ghrelin receptor for compounds of the invention can be determined using the methods described in Intl. Pat. Appl. Publ. No. WO 2004/056869 and Holst, B.; Cygankiewicz, A.; Halkjaer, T.; Ankersen, A.; Schwartz, T. W. High constitutive signaling of the ghrelin receptor—identification of a potent inverse agonist. Mol. Endocrinol. 2003, 17, 2201-2210.

The target in test [3] is T2, ghrelin receptor. Briefly: Aequorin functional assay (ghrelin receptor), Example 3. It is filed as cell-based. Also on record: host or cells: CHO-K1 cells co-expressing Gα16 and mitochondrially targeted Aequorin. Conditions: for IC50: antagonist testing vs ghrelin at EC80 (3.7 nM). The source says:
The functional activity of compounds of the invention found to bind to the GHS-R1a receptor can be determined using the method described below. (LePoul, E.; et al. Adaptation of aequorin functional assay to high throughput screening. J. Biomol. Screen. 2002, 7, 57-65; Bednarek, M. A.; et al. Structure-function studies on the new growth hormone-releasing peptide ghrelin: minimal sequence of ghrelin necessary for activation of growth hormone secretagogue receptor 1a. J. Med. Chem. 2000, 43, 4370-4376; Palucki, B. L.; et al. Spiro(indoline-3,4′-piperidine) growth hormone secretagogues as ghrelin mimetics. Bioorg. Med. Chem. Lett. 2001, 11, 1955-1957).
Membranes were prepared using AequoScreen™ (EUROSCREEN, Belgium) cell lines expressing the human ghrelin receptor (cell line ES-410-A; receptor accession #60179). This cell line is constructed by transfection of the human ghrelin receptor into CHO-K1 cells co-expressing Gα16 and the mitochondrially targeted Aequorin (Ref #ES-WT-A5). • 1. Ghrelin (reference agonist; Bachem, #H-4864) • 2. Assay buffer: DMEM (Dulbecco's Modified Eagles Medium) containing 0.1% BSA (bovine serum albumin; pH 7.0. • 3. Coelenterazine (Molecular Probes, Leiden, The Netherlands)
Stock solutions of compounds (10 mM in 100% DMSO) were provided frozen on dry ice and stored at −20° C. prior to use. From the stock solution, mother solutions were made at a concentration of 500 μM 20-fold dilution in 26% DMSO. Assay plates were then prepared by appropriate dilution in DMEM medium containing 0.1% BSA. Under these conditions, the maximal final DMSO concentration in the assay was <0.6%.
AequoScreen™ cells were collected from culture plates with Ca^2+ and Mg^2+-free phosphate buffered saline (PBS) supplemented with 5 mM EDTA, pelleted for 2 minutes at 1000×g, re-suspended in DMEM-Ham's F12 containing 0.1% BSA at a density of 5×10^6 cells/ml and incubated overnight at room temperature in the presence of 5 μM coelenterazine. After loading, cells were diluted with assay buffer to a concentration of 5×10^5 cells/ml.
For agonist testing, 50 μl of the cell suspension was mixed with 50 μl of the appropriate concentration of test compound or ghrelin (reference agonist) in 96-well plates (duplicate samples). Ghrelin (reference agonist) is tested at several concentrations concurrently with the test compounds in order to validate the experiment. The emission of light resulting from receptor activation in response to ghrelin or test compounds was recorded using the Hamamatsu FDSS 6000 reader (Hamamatsu Photonics K.K., Japan).
For antagonist testing, an approximate EC80 concentration of ghrelin (i.e. 3.7 nM; 100 μL) was injected onto the cell suspension containing the test compounds (duplicate samples) 15-30 minutes after the end of agonist testing and the consequent emission of light resulting from receptor activation was measured as described in the paragraph above.
Results are expressed as Relative Light Units (RLU). […] For agonist testing, results for each concentration of test compound were expressed as percent activation relative to the signal induced by ghrelin at a concentration equal to the EC80 (i.e. 3.7 nM). EC50, Hill slope and % Emax values are reported.
For antagonist testing, results for each concentration of test compound were expressed as percent inhibition relative to the signal induced by ghrelin at a concentration equal to the EC80.

SMILES strings stand for the structures.

T1 sequence (Q92847 whole entry): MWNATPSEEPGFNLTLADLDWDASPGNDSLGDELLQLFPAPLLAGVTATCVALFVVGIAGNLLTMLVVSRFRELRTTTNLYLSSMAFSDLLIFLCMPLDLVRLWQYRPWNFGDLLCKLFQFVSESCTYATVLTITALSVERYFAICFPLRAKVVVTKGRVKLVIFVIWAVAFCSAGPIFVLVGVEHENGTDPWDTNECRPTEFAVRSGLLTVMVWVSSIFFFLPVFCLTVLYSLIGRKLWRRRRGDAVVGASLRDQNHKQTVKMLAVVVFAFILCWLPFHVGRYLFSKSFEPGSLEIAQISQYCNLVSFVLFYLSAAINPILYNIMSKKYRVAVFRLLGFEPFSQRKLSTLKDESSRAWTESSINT
T2 sequence (Q92847 whole entry): as above

Molecule `CCC[C@@H]1NCCOc2ccccc2CCCNC(=O)[C@@H](Cc2ccccc2)NC(=O)[C@@H](C)NC1=O` [Compound 60] gave a Ki in test [1] of 100 to 1000 nM.
On to `CCC(C)[C@@H]1NCCOc2ccccc2CCCNC(=O)[C@@H](Cc2ccccc2)NC(=O)[C@@H](CO)NC1=O` (stereo partly drawn) [Compound 151], for which, in test [1], the Ki was 1000 to 10000 nM.
In test [1], `CC(C)C[C@@H]1NCCOc2ccccc2CCCNC(=O)[C@H](Cc2ccccc2)NC(=O)[C@@H](C)NC1=O` [Compound 94] came in with a Ki of 1000 to 10000 nM.
On to `CCC(C)[C@@H]1NCCOc2ccccc2CCCNC(=O)[C@@H](Cc2ccccc2)NC(=O)[C@H](CCO)N(C)C1=O` (stereo partly drawn) [Compound 506], for which the 50% inhibitory concentration (IC50) was greater than 10000 nM at ghrelin receptor [2] and 100 to 1500 nM against ghrelin receptor [3]. In test [1], this molecule displayed a Ki of 100 to 1000 nM.
`CCC(C)[C@@H]1NCCOc2ccccc2CCCNC(=O)[C@@H](Cc2ccccc2)NC(=O)[C@@H](COC(C)(C)C)NC1=O` (stereo partly drawn) [Compound 215] had a Ki in test [1] of 1000 to 10000 nM.
For `CC(O)[C@H]1C(=O)N[C@H](Cc2ccc(F)cc2)C(=O)NCCCc2ccccc2O[C@H](C)CN[C@@H](C2CC2)C(=O)N1C` (stereo partly drawn) [Compound 505], the half-maximal inhibitory concentration (IC50) at ghrelin receptor [2] is 100 to 1000 nM; at ghrelin receptor [3], 100 to 1500 nM. For the same molecule, in test [1], the inhibition constant Ki was in the range of 100 to 1000 nM.
Turning to `CCC[C@@H]1NCCOc2ccccc2CCCNC(=O)[C@@H](Cc2ccccc2)NC(=O)[C@H](C)N(C)C1=O` [Compound 79], in test [1], the Ki was 100 to 1000 nM.
Take `CCC(C)[C@@H]1NCCOc2ccccc2/C=C/CNC(=O)[C@@H](Cc2ccc(F)cc2)NC(=O)[C@H](C(C)O)N(C)C1=O` (stereo partly drawn) [Compound 504]: the half-inhibitory concentration (IC50) on ghrelin receptor [2] was in the range of 100 to 1000 nM; on ghrelin receptor [3], 1 to 100 nM. For the same molecule, in test [1], the inhibitory constant (Ki) lay within 1 to 100 nM.
With `CCC[C@@H]1NCCOc2ccccc2CCCNC(=O)[C@@H](Cc2ccccc2)NC(=O)[C@H](C)NC1=O` [Compound 59], the Ki in test [1] lay within 1000 to 10000 nM.
With `CCC(C)[C@@H]1NCCOc2ccccc2CCCNC(=O)[C@@H](Cc2ccccc2)NC(=O)[C@@H](CO)N(C)C1=O` (stereo in doubt) [Compound 152], the results for the IC50 at ghrelin receptor [2] and at ghrelin receptor [3] were greater than 10000 nM and 100 to 1500 nM, respectively. Also, the “receptor activation (agonist activity)” value on ghrelin receptor [3] (agonist testing, in comparison to known ghrelin agonists) was “no receptor activation”. For the same molecule, in test [1], the Ki was 100 to 1000 nM.
Regarding `CC[C@@H](C)[C@H]1NCCOc2ccccc2CCCNC(=O)[C@@H](Cc2ccccc2)NC(=O)[C@H]([C@H](C)O)N(C)C1=O` [Compound 509], at ghrelin receptor [3], the IC50 was greater than 1500 nM. Moreover, in test [1], the Ki was in the range of 100 to 1000 nM.
In test [1], `CCC(C)[C@@H]1NCCOc2ccccc2/C=C/CNC(=O)[C@H](Cc2ccccc2)NC(=O)[C@@H](C)NC1=O` (stereo partly drawn) [Compound 14] yielded a Ki of 100 to 1000 nM.
The molecule `CCC(C)[C@@H]1NCCOc2ccccc2CCCNC(=O)[C@@H](Cc2ccccc2)NC(=O)[C@@H](C)NC1=O` (stereo partly drawn) [Compound 2] returned a Ki in test [1] of 100 to 1000 nM.
For the molecule `CCC(C)[C@@H]1NCCOc2ccccc2CCCNC(=O)[C@@H](Cc2ccccc2)NC(=O)[C@H](C(C)O)N(C)C1=O` (stereo partly drawn) [Compound 503], the IC50 on ghrelin receptor [2] was in the range of 100 to 1000 nM; on ghrelin receptor [3], 1 to 100 nM. In test [1], this molecule registered an inhibition constant (Ki) of 1 to 100 nM.
In the case of `CCC(C)[C@@H]1NCCOc2ccccc2CCCNC(=O)[C@@H](Cc2ccc(F)cc2)NC(=O)[C@@H](COCc2ccccc2)N(C)C1=O` (stereo partly drawn) [Compound 501], in test [1], the Ki was in the range of 100 to 1000 nM.
`CCC(C)[C@@H]1NCCOc2ccccc2/C=C\CNC(=O)[C@@H](Cc2ccc(F)cc2)NC(=O)[C@H](C(C)O)N(C)C1=O` (stereo partly drawn) [Compound 508]: the IC50 at ghrelin receptor [3] was 100 to 1500 nM. This molecule registered a Ki in test [1] of 1 to 100 nM.
`CC(C)C[C@@H]1NCCOc2ccccc2CCCNC(=O)[C@H](Cc2ccccc2)NC(=O)[C@H](C)NC1=O` [Compound 93] returned a Ki in test [1] of 1000 to 10000 nM.
